# Assay results taken from patent US20050113366A1 (priority 2000, published 2005).
# Structures can show the parent of a compound that is named as a salt. Where two headings read alike, the source gives them in different places.
# What was measured:
# [1] = test system: slow wave sleep; test: EEG study of the duration of slow wave sleep in rats after i.p. injection; format: in vivo, Male Wistar rats; conditions: for Duration of slow wave sleep: 3 h EEG recording, mean ± SEM; for Increase of the duration of slow wave sleep: versus NaCl
# Excerpt: Male Wistar rats, weighing 200 g at the beginning of the experiment, coming from the Centre d'Elevage Janvier (Route des Chenes-Secs, Le Genest St-Isle, 53940 France) were used for this study.
# After eight days of adaptation to the breeding conditions at the Animalerie Centrale de la Faculte de Medecine (11, rue Humann 67084 Strasbourg), these animals were placed in individual cages (Makrolon type cages 3H, 425×266×150) in a standard (7 a.m./7 p.m.) day/night rhythm, with water and food (UAR ref. A04) continually available to them. The animals were then transferred to an experimentation facility on supports capable of receiving 24 cages.
# The surgical procedure is the following: after one month of becoming accustomed to the (10 a.m./10 p.m.) day/night cycle, the rats are weighed and then anesthetized with ketamine (Imalgene 500 Merial) at a dose of 150 mg/kg i.p. After having placed the animal in a stereotactic frame (Narishige), a rostrocaudal incision is made using a sterilized scalpel (No. 3 blade, Swann-Morton England).
# The parietal bone sutures, Lambda and Bregma, are exposed serve as stereotactic reference (point 0). After having perforated the cranial casing using a dental drill without infringing on the meninges (Minitor Narishige), two stainless steel screws 500 μm in diameter (Magister, 4 rue du Lac 25130 Villers Le Lac) are implanted at the following coordinates: Bregma AP: ±4 mm and ML: ±3 mm.
# Two copper wires are soldered with tin to the screws, on one hand, and to the female connector, on the other hand (VP Electronic, Square de la Poteme, 91302 Massy Cedex). The assembly which is realized is then covered with a polymerizing resin (Paladur, Kulzer, Germany).
# The implanted rats are then placed in their respective cages. A post-operative period greater than 48 h is complied with before any recording.
# All the EEG recordings are made during the first hours of the dark [sic; light] phase (that is, between 10 a.m. and 1 p.m.), which represents the period of awakening and intense activity of the animals.
# The rats are placed in a cage made of Plexiglas (170×170×300), and after a 30 min period of becoming accustomed to their new environment, they are recorded continuously for a duration of 3 h after i.p. injection (2 mL/kg) of 0.9% NaCl or the ligand to be studied. The EEG graph is made using an 8-track recorder (Alvar Electronic, 6 rue du Progres, 93511-Montreuil) with a running speed of 0.5 cm/s.
# The total durations of slow wave sleep for each animal are evaluated in 20 min sections for the total duration of the 3 h recording (1 cm=2 seconds).
# The statistical comparison is made using an analysis of variance test (Anova) followed by a multiple comparison test. […]
# The numbers in parentheses correspond to the percentages of slow wave sleep with respect to the total duration of sleep.
# [2] = molecular target: GHB receptors (Rattus norvegicus, UniProt P11275); test: Displacement of 3H-GHB binding on rat brain membranes; design: species or system Wistar rats
# Sequence of GHB receptors (P11275 whole entry): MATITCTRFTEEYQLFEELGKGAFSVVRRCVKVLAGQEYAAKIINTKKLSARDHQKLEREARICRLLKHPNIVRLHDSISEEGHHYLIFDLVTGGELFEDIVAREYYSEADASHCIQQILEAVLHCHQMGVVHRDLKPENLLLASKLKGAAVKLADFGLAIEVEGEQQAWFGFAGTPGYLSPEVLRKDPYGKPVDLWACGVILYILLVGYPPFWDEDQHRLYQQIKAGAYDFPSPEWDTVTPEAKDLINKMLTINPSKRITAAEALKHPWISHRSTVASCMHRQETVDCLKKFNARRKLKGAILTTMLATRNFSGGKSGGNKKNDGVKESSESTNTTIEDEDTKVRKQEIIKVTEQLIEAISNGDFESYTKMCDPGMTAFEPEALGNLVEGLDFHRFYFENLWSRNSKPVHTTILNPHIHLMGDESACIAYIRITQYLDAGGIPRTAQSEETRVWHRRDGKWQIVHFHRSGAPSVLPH
# [3] = in cats; cited from earlier work
# [4] = read-out: IC50 (concentration displacing 50% of the reversible binding of 3H-GHB), rat brain membranes, potassium phosphate buffer pH 6.0, 30 min in ice
compound,measurement,setting,value
"O=C(O)CCC(O)c1ccc(Cl)c(Cl)c1 (centres unmarked) [Compound 2, Sodium salt of 4-(3,4 dichlorophenyl)-4-hydroxybutanoic acid]",Percentage of slow wave sleep with respect to the total duration of sleep (in parentheses),[1]; 0.28 mmol/kg i.p.,23%
same,Duration of slow wave sleep,[1]; 0.28 mmol/kg i.p.,53 ± 7 min
same,Increase of the duration of slow wave sleep,[1]; 0.28 mmol/kg i.p.,42 min
"O=C([O-])CCC(O)c1cc2c3c(cccc3c1)CC2.[Na+] (centres unmarked) [Compound 24, Sodium salt of 4-(1,2-dihydroacenaphthylen-4-yl)-4-hydroxybutanoic acid]",Percentage of slow wave sleep with respect to the total duration of sleep (in parentheses),[1]; 0.15 mmol/kg i.p.,23%
same,Duration of slow wave sleep,[1]; 0.15 mmol/kg i.p.,53 ± 7 min
same,Increase of the duration of slow wave sleep,[1]; 0.15 mmol/kg i.p.,42 min
same,Percentage of slow wave sleep with respect to the total duration of sleep (in parentheses),[1]; 0.28 mmol/kg i.p.,28%
same,Duration of slow wave sleep,[1]; 0.28 mmol/kg i.p.,61 ± 8 min
same,Increase of the duration of slow wave sleep,[1]; 0.28 mmol/kg i.p.,50 min
same,IC50,"[2]; affinity for the GHB receptor, repeated in Table 4, read-out: IC50",80 nM
same,IC50,[2]; [4],80 nM
"O=C(O)CCC(O)c1ccc2c(c1)-c1ccccc1C2 (centres unmarked) [Compound 32, Sodium salt of 4-(9H-fluoren-3-yl)hydroxybutanoic acid]",IC50,[2]; [4],300 nM
"CC1(C)Cc2cc(C(O)CCC(=O)O)ccc2NC1=O (centres unmarked) [Compound 40, Sodium salt of 4-(3,3-dimethyl-2-oxo-1,2,3,4-tetrahydroquinolin-6-yl)-4-hydroxybutanoic acid]",IC50,[2]; [4],1100 nM
"O=C(O)CCCO [GHB, γ-hydroxybutyrate]",half-life,[3],approximately one
Sodium salt of 4-hydroxy-4-(phenoxathiin-2 or 3-yl) butanoic acid isomer B [Compound 29],IC50,[2]; [4],900 nM
Sodium salt of 4-hydroxy-4-(phenoxathiin-2 or 3-yl)butanoic acid isomer A [Compound 28],IC50,[2]; [4],100 nM
"Sodium salts of 4-hydroxy-4-(4-oxo-4,5-dihydro-3H-pyridazo(4,5-b)indol-8 and 6-yl)butanoic acids 8/6 isomer mixture [Compound 33]",IC50,[2]; [4],200 nM
